Patent US20030191088A1, “Novel therapeutic agents interfering in neutrophil migration” (priority 1998, published 2003)

Legend:
[1] = purified form; cited from earlier work
[2] = biological target: CD18 (β subunit of LFA-1) (Homo sapiens, UniProt P05107); conditions: cited from earlier work
healthy rabbits = assay: Animal toxicity of intravenous GXM in healthy rabbits; format: in vivo; conditions: intravenous administration, doses ranging from 0.5 to 50 mg
From the text: In experiments, it was investigated whether GXM is toxic in healthy animals.

neutrophil L-selectin = conditions: cited from earlier work
pneumococcal meningitis = pneumococcal meningitis model in rabbits, intravenous GXM; format: in vivo
[3] = test system: neutrophil migration (chemotaxis) towards IL-8; conditions: in vitro, GXM added directly to the leukocytes; cited from earlier work
neutrophils = conditions: cited from earlier work
[4] = pneumococcal meningitis rabbit model, i.v. administration
[5] = rabbits, intravenous administration, in comparison to control rabbits

Sequence of CD18 (β subunit of LFA-1) (P05107 23-769): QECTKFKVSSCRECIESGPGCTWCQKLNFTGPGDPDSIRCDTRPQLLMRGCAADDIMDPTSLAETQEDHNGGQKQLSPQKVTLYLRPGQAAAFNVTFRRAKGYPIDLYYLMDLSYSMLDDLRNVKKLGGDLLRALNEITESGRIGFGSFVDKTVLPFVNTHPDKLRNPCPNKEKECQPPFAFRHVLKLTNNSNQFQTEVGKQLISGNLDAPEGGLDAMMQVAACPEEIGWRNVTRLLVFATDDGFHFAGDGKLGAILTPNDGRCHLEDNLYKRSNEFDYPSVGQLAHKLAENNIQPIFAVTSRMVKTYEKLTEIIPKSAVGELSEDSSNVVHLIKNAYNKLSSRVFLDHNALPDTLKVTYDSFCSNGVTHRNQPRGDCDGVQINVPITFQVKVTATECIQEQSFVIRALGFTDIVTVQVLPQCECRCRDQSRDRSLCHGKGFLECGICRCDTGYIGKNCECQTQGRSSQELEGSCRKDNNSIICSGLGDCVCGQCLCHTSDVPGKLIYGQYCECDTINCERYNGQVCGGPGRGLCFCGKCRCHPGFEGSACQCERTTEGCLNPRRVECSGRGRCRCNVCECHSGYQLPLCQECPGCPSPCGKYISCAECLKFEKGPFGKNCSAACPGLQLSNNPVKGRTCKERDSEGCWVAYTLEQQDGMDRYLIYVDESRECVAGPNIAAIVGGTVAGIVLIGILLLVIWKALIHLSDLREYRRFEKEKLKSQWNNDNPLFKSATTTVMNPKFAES

## glucuronoxylomannan [GXM]
[1]
  immunogenicity: poorly immunogenic
[2]
  binding to CD18: can bind to CD18
Healthy rabbits
  tolerability in healthy rabbits: tolerated
Neutrophil L-selectin
  shedding of neutrophil L-selectin: can induce shedding of neutrophil L-selectin
Pneumococcal meningitis; i.v. administration
  toxicity and tolerability in the pneumococcal meningitis rabbit model: non-toxic and well tolerated
Pneumococcal meningitis; [4]
  GXM in CSF: detectable
  brain toxicity: No demonstrable brain toxicity
Pneumococcal meningitis; [5]
  TNF-α levels in the CSF: reduces TNF-α levels in the CSF
  entry of leukocytes (PMN) into the CSF and brain: delays entry of leukocytes (PMN) into the CSF and brain
  protection of the brain against damage: protects the brains of these rabbits against damage
[3]
  interference with neutrophil migration (chemotaxis) towards IL-8: interferes with neutrophil migration (chemotaxis) towards IL-8
neutrophils
  attraction of neutrophils: attract neutrophils itself
